Assay [1] has as its target T1, Aldehyde oxidase 1 (Macaca fascicularis, UniProt Q5FB27).
T1 sequence (Q5FB27 whole entry): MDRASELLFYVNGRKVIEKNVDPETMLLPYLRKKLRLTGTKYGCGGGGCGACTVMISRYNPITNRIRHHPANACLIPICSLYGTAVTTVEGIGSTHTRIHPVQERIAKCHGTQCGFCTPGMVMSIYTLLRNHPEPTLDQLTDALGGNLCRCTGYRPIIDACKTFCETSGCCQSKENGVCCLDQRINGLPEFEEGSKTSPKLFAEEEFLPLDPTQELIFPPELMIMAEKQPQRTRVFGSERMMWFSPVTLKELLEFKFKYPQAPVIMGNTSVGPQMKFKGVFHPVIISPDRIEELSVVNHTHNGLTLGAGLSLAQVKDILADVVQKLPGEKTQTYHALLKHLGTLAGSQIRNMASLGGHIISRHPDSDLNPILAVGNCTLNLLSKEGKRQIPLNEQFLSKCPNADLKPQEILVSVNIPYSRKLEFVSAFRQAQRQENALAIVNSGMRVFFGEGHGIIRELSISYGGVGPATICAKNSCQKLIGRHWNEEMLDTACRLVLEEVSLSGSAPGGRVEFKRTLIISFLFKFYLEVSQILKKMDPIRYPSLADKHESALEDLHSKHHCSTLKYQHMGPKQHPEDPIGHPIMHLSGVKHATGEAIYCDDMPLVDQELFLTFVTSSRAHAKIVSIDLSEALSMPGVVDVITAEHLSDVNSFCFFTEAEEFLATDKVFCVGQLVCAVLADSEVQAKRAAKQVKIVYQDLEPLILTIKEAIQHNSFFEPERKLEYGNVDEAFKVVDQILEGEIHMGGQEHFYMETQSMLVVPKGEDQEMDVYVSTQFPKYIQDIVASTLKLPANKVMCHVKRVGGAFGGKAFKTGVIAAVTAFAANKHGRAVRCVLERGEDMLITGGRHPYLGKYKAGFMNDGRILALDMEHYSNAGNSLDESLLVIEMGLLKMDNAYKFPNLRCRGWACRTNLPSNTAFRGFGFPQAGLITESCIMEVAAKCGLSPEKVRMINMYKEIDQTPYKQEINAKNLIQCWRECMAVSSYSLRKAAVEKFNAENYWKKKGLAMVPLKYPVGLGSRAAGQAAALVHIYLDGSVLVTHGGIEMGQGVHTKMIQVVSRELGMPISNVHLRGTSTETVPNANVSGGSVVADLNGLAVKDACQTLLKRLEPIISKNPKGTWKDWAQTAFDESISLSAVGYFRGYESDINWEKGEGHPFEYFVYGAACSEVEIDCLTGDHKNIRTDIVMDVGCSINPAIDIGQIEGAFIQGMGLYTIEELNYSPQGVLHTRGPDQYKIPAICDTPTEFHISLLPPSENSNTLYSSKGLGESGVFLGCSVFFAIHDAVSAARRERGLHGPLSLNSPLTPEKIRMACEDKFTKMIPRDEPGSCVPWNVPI
Kind of assay: Inhibition of monkey aldehyde oxidase.

In assay [2] the target is T2, Aldehyde oxidase 1 (Mus musculus, UniProt O54754).
T2 sequence (O54754 whole entry): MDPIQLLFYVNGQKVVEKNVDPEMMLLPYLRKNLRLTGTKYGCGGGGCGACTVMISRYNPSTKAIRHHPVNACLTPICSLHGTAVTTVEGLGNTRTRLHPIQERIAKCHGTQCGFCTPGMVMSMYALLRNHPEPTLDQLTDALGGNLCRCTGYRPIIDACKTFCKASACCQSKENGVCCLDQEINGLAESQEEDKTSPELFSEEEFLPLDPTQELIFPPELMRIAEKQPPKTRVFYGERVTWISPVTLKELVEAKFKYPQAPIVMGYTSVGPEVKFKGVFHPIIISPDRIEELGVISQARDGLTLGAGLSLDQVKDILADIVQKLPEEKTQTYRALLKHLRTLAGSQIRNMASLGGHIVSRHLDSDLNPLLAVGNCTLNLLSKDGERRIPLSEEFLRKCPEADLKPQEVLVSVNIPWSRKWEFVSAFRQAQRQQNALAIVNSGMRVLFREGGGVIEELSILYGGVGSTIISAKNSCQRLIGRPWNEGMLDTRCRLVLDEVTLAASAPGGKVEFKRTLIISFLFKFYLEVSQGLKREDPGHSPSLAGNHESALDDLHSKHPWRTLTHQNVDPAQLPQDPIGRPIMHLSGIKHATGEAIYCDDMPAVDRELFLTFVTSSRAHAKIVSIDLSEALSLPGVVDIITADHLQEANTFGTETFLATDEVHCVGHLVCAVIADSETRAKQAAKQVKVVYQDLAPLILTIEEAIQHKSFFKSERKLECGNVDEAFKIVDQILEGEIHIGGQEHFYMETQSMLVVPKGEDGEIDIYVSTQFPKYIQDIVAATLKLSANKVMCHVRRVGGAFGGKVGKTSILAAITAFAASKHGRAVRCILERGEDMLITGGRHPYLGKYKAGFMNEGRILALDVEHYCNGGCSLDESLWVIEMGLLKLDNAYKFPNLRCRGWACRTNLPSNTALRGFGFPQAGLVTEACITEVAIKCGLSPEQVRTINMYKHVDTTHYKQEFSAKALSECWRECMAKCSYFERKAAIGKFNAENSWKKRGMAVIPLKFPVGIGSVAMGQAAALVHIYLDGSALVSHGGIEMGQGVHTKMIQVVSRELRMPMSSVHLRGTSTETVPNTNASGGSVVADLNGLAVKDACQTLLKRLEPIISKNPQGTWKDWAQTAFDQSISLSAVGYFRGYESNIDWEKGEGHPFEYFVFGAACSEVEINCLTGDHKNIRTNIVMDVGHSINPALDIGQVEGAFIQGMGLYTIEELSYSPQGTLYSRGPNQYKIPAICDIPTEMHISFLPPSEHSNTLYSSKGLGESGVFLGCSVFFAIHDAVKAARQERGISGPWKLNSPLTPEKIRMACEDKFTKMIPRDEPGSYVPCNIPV
Kind of assay: Inhibition of mouse aldehyde oxidase.

`C[C@]12CC[C@@H]3c4ccc(O)cc4CC[C@H]3[C@@H]1CC[C@@H]2O` [ESTRADIOL] yielded an IC50 on Aldehyde oxidase 1 [1] of 12 µM.

Regarding `OCCN1CCN(CCCN2c3ccccc3Sc3ccc(Cl)cc32)CC1` [PERPHENAZINE], the values for the IC50 against Aldehyde oxidase 1 [1] and against Aldehyde oxidase 1 [2] were 3.6 µM and 6.1 µM, respectively.

These data come from ChEMBL document CHEMBL1629464, “Aldehyde oxidase: an enzyme of emerging importance in drug discovery” (J Med Chem, 2010).
